Measured values: patent US6559170B1, “Pyridine derivatives having fungicidal activity and processes to produce and use same” (Dow AgroScience LLC, priority 1999, dated 2003)

Columns and labels:
[1] = test system: Erysiphe graminis—ERYSGT; test: Powdery Mildew of Wheat, 1-day protectant whole plant test; assay type: in vivo; conditions: 100 ppm spray, 1-day protectant (1DP), wheat cultivar Monon
[2] = test system: Phytophthora infestans—PHYTIN; assay type: in vivo; conditions: 100 ppm spray, 1-day protectant (1DP), tomatoes cultivar Rutgers
[3] = test system: Puccinia recondita—PUCCRT; test: Brown rust of wheat, 1-day protectant whole plant test; assay type: in vivo; conditions: 100 ppm spray, 1-day protectant (1DP), wheat cultivar Monon
[4] = test system: Leptosphaeria nodorum—LEPTNO; test: Glume blotch of wheat, 1-day protectant whole plant test; assay type: in vivo; conditions: 100 ppm spray, 1-day protectant (1DP), wheat cultivar Monon

CNC(=O)C(=NOC)c1cccc(Cl)c1COc1ccc(Sc2ccc(C)cc2)cn1 [Compound 4, 2-Methoxyimino-N-methyl-{3-chloro-2-[5-(4-methylphenyl)thio-2-pyridyloxy]methylphenyl}acetamide]
ERYSGT percent control of the plant disease compared with untreated, inoculated plants [1]: 67%
PHYTIN percent control of the plant disease compared with untreated, inoculated plants [2]: 89%
PUCCRT percent control of the plant disease compared with untreated, inoculated plants [3]: 99%
melting point: 100 to 102 °C
LEPTNO percent control of the plant disease compared with untreated, inoculated plants [4]: 98%

CNC(=O)C(=NOC)c1ccccc1COc1ccc(Sc2ccccc2)cn1 [Compound 6, 2-Methoxyimino-N-methyl-[2-(5-phenylthio-2-pyridyloxy)methylphenyl]acetamide]
ERYSGT percent control of the plant disease compared with untreated, inoculated plants [1]: 80%
PHYTIN percent control of the plant disease compared with untreated, inoculated plants [2]: 90%
PUCCRT percent control of the plant disease compared with untreated, inoculated plants [3]: 98%
melting point: 95 to 96 °C
LEPTNO percent control of the plant disease compared with untreated, inoculated plants [4]: 98%

CNC(=O)C(=NOC)c1ccccc1COc1ncc(Sc2ccccc2)cc1Cl [Compound 3, 2-Methoxyimino-N-methyl-[2-(3-chloro-5-phenylthio-2-pyridyloxy)methylphenyl]acetamide]
ERYSGT percent control of the plant disease compared with untreated, inoculated plants [1]: 85%
PHYTIN percent control of the plant disease compared with untreated, inoculated plants [2]: 90%
PUCCRT percent control of the plant disease compared with untreated, inoculated plants [3]: 98%
melting point: 84 to 86 °C
LEPTNO percent control of the plant disease compared with untreated, inoculated plants [4]: 90%
